{"source": "patent US8513280B2", "about": "“Use of epothilones in the treatment of neuronal connectivity defects such as schizophrenia and autism” (Institut National de la Sante et de la Recherche Medicale, priority 2004, dated 2013)", "assay_type_in_all_cases": "in vivo, mouse", "key": {"[1]": {"test_system": "STOP KO mice", "experiment": "Pup survival in progeny of STOP KO mothers", "protocol": "The epothilone treatment has been then tested whether it could induce pup survival in STOP KO mothers. Nine STOP KO mice treated with Epothilone D at 0.3 mg/kg/week and eight untreated females were mated the pups survival were analysed after delivery."}, "[2]": {"test_system": "STOP KO mice", "experiment": "Synaptic vesicle density in CA1 hippocampal synapses (electron micrographs), STOP KO mice", "protocol": "It reports the quantitative analysis of synaptic vesicle density in CA1 hippocampal synapses of mice treated or not with epothilone D 3 mg/kg/week or with neuroleptics (0.5 mg/kg/day haloperidol and 5 mg/kg/day chlorpromazine, in drinking water, from birth to adulthood). Synaptic vesicle density, calculated as the ratio of the number of vesicle/nerve terminal surface (after subtraction of the surface area occupied by mitochondria). Results (means+/−s.e.m.) are shown for pooled 75 measurements from five wild type mice and from five STOP KO mice either untreated or treated with Epothilone D. For neuroleptic control experiments, results (means+/−s.e.m.) are shown for pooled 75 measurements from three STOP KO mice either untreated or treated with neuroleptics.\nHippocampus was dissected out from transcardially fixed mice, sliced and embedded in Epon. To determine the surface density of synaptic vesicles, a total of cross sections of 75 synapses made of hippocampal CA1 region were photographed randomly, and the numbers of synaptic vesicles in each nerve pre-terminal were counted on the electron micrographs. Synaptic vesicles density of STOP KO mice following long term neuroleptic treatment (0.5 mg/kg/day haloperidol and 5 mg/kg/day chlorpromazine, in drinking water, from birth to adulthood) was also examined using the same protocol. […]"}, "[3]": {"test_system": "WT mice", "experiment": "Maternal behaviour: nest building and pup retrieving, WT mice", "settings": "example II", "protocol": "(§1) For maternal behaviour, STOP deficient or control wild type (WT) female mice, nulliparous, 8 weeks old, were treated either with a placebo (carrier alone), or with epothilone D.\n(§2) The maternal behaviour of treated and untreated mice was monitored by assaying the mouse ability to build a nest and to retrieve pups\n(§3) For assessment of nesting capacity, the tested mouse was placed in a 240×240×120 mm cage containing litter and provided with a Kleenex tissue folded in 4 (final dimensions, 100×100 mm). After 60 hours, the mouse ability to use the paper and to build a nest was scored as follows:\n(§4) Tissue use score: 0, the Kleenex tissue remained folded; 1, the tissue has been unfolded but not shredded; 2 the tissue was shredded.\n(§5) Nest building score: 0, no attempt to build a nest; 1, primitive flat nest of uncontrolled shape; 2, true nest, the paper is mixed with litter to form a circular nest, less than 80 mm in diameter.\n(§6) For assessment of retrieving: following the nest building test, mice were trained and assessed for pup retrieving as in Andrieux et al. (Genes Dev. 2002 Sep. 15; 16(18):2350-64. Retrieving was scored as the number of pups retrieved (0 to 3).\nFinally a global score for nesting and retrieving capacity (TNR) was determined for each mouse, by adding the tissue use, nest building, and pup retrieving scores (maximal score for TNR is 7). […]"}, "[4]": {"test_system": "STOP deficient mice", "experiment": "Maternal behaviour: nest building and pup retrieving, STOP KO mice", "protocol": "as §1, §2, §3, §4, §5, §6\nFinally a global score for nesting and retrieving capacity (TNR) was determined for each mouse, by adding the tissue use, nest building, and pup retrieving scores (maximal score for TNR is 7).\nThe maternal behaviour of untreated and treated mice was monitored by assaying mouse ability to build a nest and to retrieve pups. Experiments were performed at 3 concentrations of epothilone D (4 mg/kg/week, 3 mg/kg/week and 0.3 mg/kg/week).\nAmong 69 STO KO mice, […] were treated with placebo injections, 17 were treated with 3 mg/kg/week of epothilone, and 18 were treated with 0.3 mg/kg/week of epothilone. Among 34 WT mice, 17 were treated with placebo injections, and 17 were treated with 3 mg/kg/week of epothilone.\nIn another series of experiments, among 19 STOP KO mice, 9 were treated with placebo injections, 10 with 4 mg/kg/week epothilone D and as control, among 20 WT mice, 10 were treated with placebo injections and 10 with 4 mg/kg/week epothilone D."}, "[5]": {"test_system": "WT mice", "experiment": "Spontaneous activity, video-recorded during 3 h, WT mice", "protocol": "(§7) Spontaneous activity (male and female) was recorded and quantified during a three hours period of time, as in Andrieux et al., Genes Dev. 2002 Sep. 15; 16(18):2350-64. Five activities were considered: feeding, remaining still without sleeping, walking, grooming and sleeping. For each activity, the total time spent doing the activity and the number of distinct sequences of activity, were determined.\n(§8) In a first series of experiments, epothilone D was injected intra-peritoneally, once a week, at either 0.3 mg/kg/week or 3 mg/kg/week for at least 8 weeks. The drug was diluted at a final concentration of 0.3 mg/ml in water, from a 50 mg/ml stock solution in DMSO.\n(§9) In a second series of experiments, epothilone D was injected intra-peritoneally, in two injections a week, at a total dose of 4 mg/kg/week, for 8 weeks. The drug was diluted at a final concentration of 0.2 mg/ml in water, from a 50 mg/ml stock solution in DMSO.\n(§10) Among 61 STOP KO mice, 28 were treated with placebo injections, 33 with 3 mg/kg/week of epothilone D. Among 62 WT mice, 29 were treated with placebo injections, 33 with 3 mg/kg/week of epothilone D.\n(§11) In another series of experiments, among 19 STOP KO mice, 9 were treated with placebo injections, 10 with 4 mg/kg/week epothilone D. Among 20 WT mice, 10 were treated with placebo injections and 10 with 4 mg/kg/week epothilone D."}, "[6]": {"test_system": "STOP deficient mice", "experiment": "Spontaneous activity, video-recorded during 3 h, STOP KO mice", "protocol": "as §7, §8, §9, §10, §11"}, "[7]": {"settings": "STOP KO mice, 0.3 mg/kg/week i.p., FIG. 3"}, "[8]": {"settings": "STOP KO mice, 3 mg/kg/week i.p., FIG. 3"}, "[9]": {"settings": "STOP deficient mice, 4 mg/kg/week, FIG. 4"}, "[10]": {"settings": "STOP deficient mice, 3 mg/kg/week i.p., FIG. 1-B"}, "[11]": {"settings": "STOP deficient mice, 4 mg/kg/week, 8 weeks, FIG. 2"}}, "note": "Several values for one entry are separate records, joined by “and”; a condition that tells them apart may be missing. Identical values can stand only once."}
{"smiles": "C/C1=C/CC(/C(C)=C/c2csc(C)n2)OC(=O)CC(O)C(C)(C)C(=O)C(C)C(O)C(C)CCC1", "note": "(stereo not shown) [epothilone D]", "values": [{"measurement": "STOP KO females with pup survival", "setting": "[1]; 0.3 mg/kg/week, nine treated STOP KO females mated, no pup survival without treatment", "result": "three out of the nine"}, {"measurement": "ratio of surviving pups to newborns", "setting": "[1]; 0.3 mg/kg/week, per mouse, the three STOP KO females with surviving pups", "result": "5/6 (2×) and 6/6"}, {"measurement": "maternal behaviour, compatible with pup survival", "setting": "[1]; STOP deficient female mice, summary statement, dose not stated", "result": "re-established"}, {"measurement": "increase of synaptic vesicle density relative to absence of treatment", "setting": "[2]; CA1 hippocampal synapses, 4 mg/kg/week, p<0.001, FIG. 5", "result": 20, "unit": "%"}, {"measurement": "increase of synaptic vesicle density", "setting": "[2]; summary statement, dose not stated", "result": "about 20%"}, {"measurement": "effect on nurturing-related behaviours", "setting": "[3]", "result": "no significant effect"}, {"measurement": "TNR score (global score, maximal 7)", "setting": "[4]; [7]", "result": "highly significant increase"}, {"measurement": "nest building score (0-2)", "setting": "[4]; [7]", "result": "improved"}, {"measurement": "paper use score (tissue use score, 0-2)", "setting": "[4]; [7]", "result": "improved"}, {"measurement": "pup retrieving score (0-3)", "setting": "[4]; [7]", "result": "improved"}, {"measurement": "TNR score (global score, maximal 7)", "setting": "[4]; [8]", "result": "highly significant increase"}, {"measurement": "nest building score (0-2)", "setting": "[4]; [8]", "result": "improved"}, {"measurement": "paper use score (tissue use score, 0-2)", "setting": "[4]; [8]", "result": "improved"}, {"measurement": "pup retrieving score (0-3)", "setting": "[4]; [8]", "result": "improved"}, {"measurement": "TNR score (global score, maximal 7)", "setting": "[4]; STOP KO mice, 4 mg/kg/week, rose from 1.16 without treatment, highly significant increase, FIG. 4", "result": 4.4}, {"measurement": "nest building score (0-2)", "setting": "[4]; [9]", "result": "strongly improved"}, {"measurement": "paper use score (tissue use score, 0-2)", "setting": "[4]; [9]", "result": "strongly improved"}, {"measurement": "pup retrieving score", "setting": "[4]; [9]", "result": "tended to improve"}, {"measurement": "number of sequences of stillness", "setting": "[5]; 4 mg/kg/week, FIG. 2, said to be compatible with random fluctuations", "result": "significant increase"}, {"measurement": "effect on the recorded activities", "setting": "[5]; example I (3 and 4 mg/kg/week)", "result": "no significant effect"}, {"measurement": "total number of shifts between activities", "setting": "[6]; STOP KO mice, summary statement, dose not stated", "result": "decrease"}, {"measurement": "total time spent grooming", "setting": "[6]; STOP deficient mice, 3 mg/kg/week i.p. once a week, at least 8 weeks, vs placebo, FIG. 1-A", "result": "decrease"}, {"measurement": "number of remaining still while awake sequences", "setting": "[6]; [10]", "result": "reducing"}, {"measurement": "number of walking sequences", "setting": "[6]; [10]", "result": "reducing"}, {"measurement": "total time spent sleeping", "setting": "[6]; STOP deficient mice, 3 mg/kg/week i.p., vs placebo, FIG. 1-A", "result": "increase"}, {"measurement": "total number of shifts between activities", "setting": "[6]; STOP deficient mice, 3 mg/kg/week i.p., vs placebo, FIG. 1-B", "result": "decreased"}, {"measurement": "total number of shifts between activities", "setting": "[6]; STOP deficient mice, 4 mg/kg/week i.p. in two injections a week, 8 weeks, FIG. 2", "result": "remarkable decrease"}, {"measurement": "number of feeding sequences", "setting": "[6]; [11]", "result": "remained unaffected"}, {"measurement": "number of grooming sequences", "setting": "[6]; [11]", "result": "decrease"}, {"measurement": "number of sleeping sequences", "setting": "[6]; [11]", "result": "remained unaffected"}, {"measurement": "number of walking sequences", "setting": "[6]; [11]", "result": "decrease"}, {"measurement": "total time spent grooming", "setting": "[6]; [11]", "result": "highly significantly diminished"}, {"measurement": "time spent sleeping", "setting": "[6]; STOP deficient mice, 4 mg/kg/week, 8 weeks, trend (tended to increase), FIG. 2", "result": "increase"}, {"measurement": "time spent remaining still without sleeping", "setting": "[6]; STOP deficient mice, 4 mg/kg/week, 8 weeks, trend, FIG. 2", "result": "tended to diminish"}]}
